The source of these data is PMC2981568 (PLoS ONE, 2010).

Usually IC50 stands for the concentration needed to halve the response being measured. A lower IC50 goes with greater potency. By stoichiometry N is commonly meant a count of units in the complex or per binding partner.

Data set [1] addresses T1, MtbPRPPase (phosphoribosylpyrophosphate synthetase) (Mycobacterium tuberculosis, UniProt P9WKE3).
T1 construct: gene prs
The experiment in a line: […]; inhibition curve and steady-state kinetics ([…] Pi; IC50 […] at […] Pi). It is filed as biochemical.

The target in data set [2] is T1, MtbPRPPase (phosphoribosylpyrophosphate synthetase). The experiment in a line: biochemical.
The data set “SEC” deals with the molecule itself. Briefly: SEC. On the technique in general: In gel filtration, larger molecules generally elute earlier.

For the molecule `Nc1ncnc2c1ncn2[C@@H]1O[C@H](COP(=O)(O)OP(=O)(O)O)[C@@H](O)[C@H]1O` [ADP], in data set [1], the IC50 came to 400 µM.

Regarding `Nc1nc2c(ncn2[C@@H]2O[C@H](COP(=O)(O)OP(=O)(O)O)[C@@H](O)[C@H]2O)c(=O)[nH]1` [GDP], the IC50 in data set [2] was greater than 5000 µM.

B1: Mycobacterium tuberculosis phosphoribosylpyrophosphate synthetase (enzyme)
chain: MSHDWTDNRKNLMLFAGRAHPELAEQVAKELDVHVTSQDAREFANGEIFVRFHESVRGCDAFVLQSCPAPVNRWLMEQLIMIDALKRGSAKRITAVMPFYPYARQDKKHRGREPISARLIADLLKTAGADRIVTVDLHTDQIQGFFDGPVDHMRGQNLLTGYIRDNYPDGNMVVVSPDSGRVRIAEKWADALGGVPLAFIHKTRDPRVPNQVVSNRVVGDVAGRTCVLIDDMIDTGGTIAGAVALLHNDGAGDVIIAATHGVLSDPAAQRLASCGAREVIVTNTLPIGEDKRFPQLTVLSIAPLLASTIRAVFENGSVTGLFDGDA
notes: also called MtbPRPPase; M. tuberculosis PRPPase; not shown: His6, N-terminal, kept
In the case of B1, the “stoichiometry N” value in the data set “SEC” was determined as 6.
